The melting point is the temperature of the solid-liquid transition.

As for `Cc1c(Br)cc(C(=O)Cl)c(C)c1C`, the melting point lay within 60 to 62 °C.

As to `CCOC(=O)CCC(=O)OC(C(=O)c1ccccc1)c1ccccc1` (stereo unspecified), the melting point lay within 48 to 57 °C.

With `CSc1cc2c(c3c1CCc1ccccc1-3)c(=O)n(-c1ccccc1)n2C`, the melting point came to 181 °C.

Compound `ClCc1cccc(-c2ncccn2)c1` gave a melting point of 68 to 70 °C.

Take `Cc1cc(C(=O)O)cc(O)n1`: the melting point turned out to be 240 °C.

For `NC(=O)c1c(N)cccc1F`, the melting point was in the range of 115 to 118 °C.

`C=C(C)CCCCCCCCCCCCCCCCC` had a melting point of 20 °C.

`C=Cc1ccc(C)cc1` gave a melting point of -34 °C.

The compound `Cc1nc(-c2ccc(CBr)cc2)no1` registered a melting point of 103 to 104 °C.

`CCOc1ccc(NC(=O)CN)cc1` came in with a melting point of 100 °C.

In turn, `COc1cc(C)c(C=O)c(OC)c1` showed a melting point of 65 °C.

`Cc1ncc(CO)c(N)n1` came in with a melting point of 198 °C.

In turn, `O=CC1CC=CCC1` (stereo unspecified) registered a melting point of 2 °C.

Compound `N#CC1=C(N)Oc2c(c(C(F)(F)F)nn2-c2ccccc2)C1c1c(Cl)cc(Cl)cc1Cl` (stereo unspecified) registered a melting point of 207 °C.

Regarding `O=C(Cl)C12CC3CC(CC(C3)C1)C2`, the melting point stood at 51 °C.

On to `CCCC(CC)c1ccccc1` (stereo unspecified), for which the melting point is -55.4 °C.

With `COc1c2ccoc2cc2oc(COC3OC(CO)C(O)C(O)C3O)cc(=O)c12` (stereo unspecified), the melting point was determined as 179 °C.

On to `COc1cccc2c1C(=O)c1c(O)c3c(c(O)c1C2=O)CC(O)(C(C)=O)CC3OC1CC(N)C(O)C(C)O1` (stereo unspecified), for which the melting point was determined as 208 °C.

In the case of `CCCCc1ccc(/N=N/c2ccc(OCCC)cc2)cc1`, the melting point lay within 66 to 68 °C.

`Nc1ccc(Br)c(Cl)c1Cl` came in with a melting point of 75 to 77 °C.

In the case of `O=C(O)c1cc([N+](=O)[O-])cc(C(F)(F)F)c1`, the melting point was 130 °C.

In turn, `Nc1c(Cl)c(Cl)cc(Cl)c1Cl` had a melting point of 107 °C.

In turn, `Cc1cc(N)ccc1[N+](=O)[O-]` yielded a melting point of 135 °C.

Take `COc1cc(F)ccc1C(C)=O`: the melting point came to 52 °C.

`O=C1NC(=O)C2(c3ccc(Cl)cc3)c3ccccc3CCN12` (stereo unspecified) had a melting point of 215 to 216 °C.

As to `Cc1ccc(O)c(C=O)c1`, the melting point was 56 °C.

Regarding `O=C(O)CC(Br)C(=O)O` (racemic), the melting point was 160 to 166 °C.

In turn, `Brc1ccc(Br)nc1` came in with a melting point of 94 °C.

On to `O=CC=Cc1ccccc1[N+](=O)[O-]`, for which the melting point was 125 to 129 °C.

For the compound `CC12CCC3C(CCC4CC(OC=O)CCC43C)C1CC=C2C#Cc1ccccc1` (stereo unspecified), the melting point lay within 179 to 180 °C.

Regarding `CC1=CCC(O)(C(C)C)CC1` (stereo unspecified), the melting point is 14.7 °C.

Consider `O=C(O)c1ccc(-c2nccs2)cc1`, for which the melting point is 239 to 241 °C.

In the case of `CN(C)c1cccc(N(C)C)c1C#N`, the melting point was 71 to 73 °C.

`O=C1Nc2ccccc2C=NC2CCCCC2N=Cc2ccccc2NC(=O)O1` (stereo unspecified) showed a melting point of 253 to 255 °C.

In turn, `O=C(O)c1cncc(Br)c1` yielded a melting point of 184 °C.

`CC(C)NC(=O)C(C)C` gave a melting point of 103 to 104 °C.

As to `O=Cc1cccc(-c2ccncc2)c1`, the melting point came out at 48 °C.

On to `COc1ccc2c(=O)c(=O)c2c1`, for which the melting point came out at 102 °C.

With `CCCCC(=O)c1ccc(F)cc1`, the melting point was determined as 27 °C.

Take `O=C(O)c1ccc(N2CCCC2)cc1`: the melting point came to 230 °C.

Turning to `C=C[Si]12OCCN(CCO1)CCO2`, the melting point lay in the range of 163 to 165 °C.

`O=C1C2CC3CC(C2)CC1C3`: the melting point came to 286 °C.

`Cc1nn(-c2ccccc2)c(C)c1C=O`: the melting point lay within 125 to 128 °C.

`Cc1cc([N+](=O)[O-])ccc1F`: the melting point came out at 39 °C.

For the compound `C/C(=N\c1ccc(O)c(C)c1)c1c(O)c2ccccc2n(-c2ccccc2)c1=O`, the melting point lay within 231 to 232 °C.

With `COc1ccc(N)c(C)c1`, the melting point stood at 29.5 °C.

`CC(C)OC(=O)C(C)(C)Oc1ccc(C(=O)c2ccc(Cl)cc2)cc1`: the melting point stood at 80.5 °C.

Turning to `NNC(=O)CN1c2ccccc2Sc2ccccc21`, the melting point was in the range of 216 to 218 °C.

`Cc1ccc(Nc2ccc(C)cc2)cc1` displayed a melting point of 79.8 °C.

On to `O=C1CCCO1`, for which the melting point is -43.3 °C.

Turning to `Nc1nnc(-c2ccccc2)c(Nc2ccc(Br)cc2)n1`, the melting point came to 203 °C.

Consider `O[C@@H]1CCCC/C=C\c2ccccc21`, for which the melting point was 97 °C.

As to `COP(=S)(OC)Oc1ccc(Sc2ccc(OP(=S)(OC)OC)cc2)cc1`, the melting point worked out at 30.3 °C.

In turn, `COC(=O)C(NC(=O)OCc1ccccc1)P(=O)(OC)OC` (stereo unspecified) gave a melting point of 78 °C.

In the case of `O=C(O)CSc1nnc(S)s1`, the melting point is 168 to 169 °C.

Compound `CCCCC(O)(CCCC)CCCC` returned a melting point of 20 °C.

`c1ccc(CNc2ccccn2)cc1` showed a melting point of 95 °C.

Take `CC(C=CC=C(C)C=CC1=C(C)CC(O)CC1(C)C)=CC=CC=C(C)C=CC=C(C)C1C=C2C(C)(C)CC(O)CC2(C)O1` (stereo unspecified): the melting point was 184 °C.

Compound `O=C(O)c1cc(I)ccc1F` displayed a melting point of 163 °C.

`Cc1cccc2c1[nH]c(=O)c1cc(NC(=O)c3ccccc3)c(=O)oc12` yielded a melting point above 300 °C.

The compound `Cc1cc(C2(c3ccc(O)c(C)c3)CCCCC2)ccc1O` displayed a melting point of 184 to 185 °C.

In turn, `CCc1c(C)cc(C)cc1C` had a melting point of -16 °C.

`CC(C)(S)C(=O)O` showed a melting point of 47 °C.

In the case of `Fc1ccc(C(=S)N2CCCCC2)cc1`, the melting point turned out to be 77 °C.

Compound `CC(=O)c1ccc(OC2OC(CO)C(O)C(O)C2O)cc1` (stereo unspecified) yielded a melting point of 196 °C.

Turning to `CCNc1nc(Cl)nc(NC(C)(C)C#N)n1`, the melting point turned out to be 168 °C.

In turn, `CC(=O)c1cc2cc(Br)ccc2o1` gave a melting point of 111 °C.

`CCOC(=O)C(SP(=S)(OC)OC)c1ccccc1` (stereo unspecified) yielded a melting point of 17.5 °C.

The compound `CCCCC(=O)N(C)C` had a melting point of -51 °C.

With `Cc1csc(N)c1-c1nc2ccccc2s1`, the melting point fell in the range of 111 to 112 °C.

For `N#CSc1ccc([N+](=O)[O-])c(C(=O)O)c1`, the melting point was in the range of 156 to 160 °C.

With `CCC#CC(=O)O`, the melting point amounted to 50 °C.

In turn, `Cc1oc(S(=O)(=O)N2CCCC2)cc1C(=O)O` gave a melting point of 185 °C.

Take `Clc1cc2c(c(Cl)c1Cl)Oc1c(cc(Cl)c(Cl)c1Cl)O2`: the melting point came out at 243 °C.

`COP(=O)(CN1C(=O)c2ccccc2C1=O)OC` gave a melting point of 118 °C.

In turn, `Nc1ccc(Sc2ccc(N)cc2)cc1` displayed a melting point of 108 °C.

On to `Cc1ccccc1-n1ncc(C(=O)O)c1C`, for which the melting point fell in the range of 142 to 147 °C.

The compound `BrC(=Cc1ccccc1)c1ccc(Br)c2c(Br)cccc12` yielded a melting point of 171 °C.

The compound `COc1ccc(-c2cc(C(F)(F)F)[nH]n2)cc1OC` came in with a melting point of 150 to 156 °C.

`CC(C)OP(=O)(CCP(=O)(OC(C)C)OC(C)C)OC(C)C` came in with a melting point of 35.5 °C.

`CC1=C(O)C(=O)C(C(C)C)CC1` (stereo unspecified): the melting point was 83 °C.

Regarding `CCOC(=O)c1c[nH]c(S)n1`, the melting point lay within 191 to 193 °C.

As to `Cc1cccc(C)c1NC(=O)CN(CC(=O)O)CC(=O)O`, the melting point is 213 to 216 °C.

Regarding `N#Cc1ccc(N)c(Br)c1`, the melting point lay within 106 to 111 °C.

In turn, `C#Cc1ccc(C(C)=O)cc1` displayed a melting point of 68 to 70 °C.

Compound `O=C(O)CCc1ccccc1O` registered a melting point of 87 °C.

Take `CCOC(=O)CCC(C)C1CCC2C3C=CC4CC(OC(C)=O)CCC4(C)C3CC(OC(C)=O)C12C` (stereo unspecified): the melting point fell in the range of 83 to 84 °C.

On to `COC(=O)C1(C(=O)OC)Cc2ccccc2C(=O)O1`, for which the melting point stood at 113 °C.

Compound `Cc1nn(C)c(Cl)c1[N+](=O)[O-]` gave a melting point of 75 to 77 °C.

With `c1ccc(OCc2nnc3n2NC(c2ccco2)S3)cc1` (stereo unspecified), the melting point is 102 °C.

The compound `CC(C)CC(C)(N)C(=O)O` (racemic) had a melting point of 300 °C.

Compound `Cc1ccc(-c2csc(/C(C#N)=N\Nc3ccc(O)cc3)n2)cc1` came in with a melting point of 252 °C.

As for `O=C(O)Cc1cc(O)c(CC(=O)O)cc1O`, the melting point fell in the range of 234 to 236 °C.

Consider `CCCCC=CC(=O)O`, for which the melting point was -19 °C.

For the compound `CC(C)Nc1nc(Cl)nc(NC2CC2)n1`, the melting point amounted to 167 °C.

`FCC(F)F` had a melting point of -84 °C.

With `O=Cc1ncc[nH]1`, the melting point was 209 °C.

Take `CCOC(=O)Nc1ccc(NCc2ccc(F)cc2)nc1N`: the melting point was 114 °C.

Turning to `Fc1cc(Br)cc(Br)c1N=C=S`, the melting point fell in the range of 50 to 51 °C.

Compound `N#Cc1ccc(O)cc1F` gave a melting point of 125 °C.

`Brc1ccc2[nH]c3ccc(Br)cc3c2c1` returned a melting point of 212 °C.

Take `O=C1OC(=O)C2CCC12` (stereo unspecified): the melting point is 73 to 76 °C.

In turn, `CC(=O)c1ccc2c(c1)NC(=O)CO2` returned a melting point of 196 °C.

The compound `O=C(Nc1ccc(Cl)cc1)Nc1ccc(Cl)cc1` displayed a melting point of 270 °C.

Compound `CCCc1c(O)c(C(C)=O)cc(C(C)=O)c1O` showed a melting point of 99 to 100 °C.

Take `COC(=O)C(Cl)C(C)=O` (stereo unspecified): the melting point was -33 °C.

For `CCC=Cc1ccccc1`, the melting point was -43.1 °C.

In the case of `O=C(O)CCSC1=CC(=O)C(SCCC(=O)O)=CC1=O`, the melting point lay in the range of 230 to 236 °C.

As to `CC(C)(C)CC(=O)C=C1Nc2ccccc2NC1=CC(=O)CC(C)(C)C`, the melting point was 220 to 222 °C.

In turn, `Cn1nccc1N` yielded a melting point of 73 to 76 °C.

For `CS(=O)(=O)C1CS(=O)(=O)CC1O` (stereo unspecified), the melting point lay in the range of 200 to 210 °C.

Compound `NC(=S)NC(N)=S` registered a melting point of 181 to 183 °C.

Take `O=C(c1ccc(O)cc1)c1ccc(O)cc1`: the melting point worked out at 223 °C.

In the case of `CNCc1sc(-c2ccccc2)nc1-c1ccccc1`, the melting point lay within 87 to 88 °C.

`O=C(O)c1cnc2n(c1=O)CCS2` registered a melting point of 237 to 238 °C.

Regarding `Cn1nc(C(=O)O)cc1-c1ccco1`, the melting point lay within 142 to 144 °C.

Source of the values: a melting point compilation (Tetko et al.).
